A short description of data set [1]: Phase 1 single- and multiple-dose study: safety and tolerability. The class given is in vivo, human. How it is done:
(§1) General Design and Methodology: The purpose of this study is to assess the initial safety, tolerability, pharmacokinetics, and pharmacodynamics of Compound 1 (administered as Capsules of the hydrochloride salt of Compound 1) in healthy adults. […] Data from this study is used to select doses and dose regimens for subsequent clinical studies.
In Part 2, Panels are dosed sequentially.

For data set [2], the target named is MGLL (Canis lupus familiaris, UniProt A0A8I3PC77). The experiment in a line: biochemical. How it is done:
In vitro potency was determined using activity-based protein profiling (ABPP) which is a functional proteomic technology that uses chemical probes to covalently modify enzyme active sites in an activity-dependent manner (e.g., only catalytically active enzymes will react and become labeled with the ABPP probe). Identification of the proteins that were labeled by the probes was accomplished using polyacrylamide gel electrophoresis or mass spectrometry.

Data set [3] relates to 2-AG. Put plainly: 2-AG and anandamide concentrations in rat tissues and plasma after oral dose. The format is in vivo. The text has this: MGLL target engagement inhibits the hydrolysis of 2-AG, elevating tissue 2-AG concentrations, which can be measured in rodent tissues and fluids by MS. Elevation of 2-AG results in enhanced cannabinoid receptor signaling and physiological responses.
Inhibition of MGLL causes accumulation of 2-AG in the rodent brain and periphery.

Data set [4] concerns 2-AG. The experiment in a line: Rat plasma 2-AG levels after single PO dose (LC-MS/MS). The class given is in vivo. The settings on record: single PO doses up to 30 mg/kg, 4 h. How it is done: […]. MGLL activity was assessed by ABPP analysis in PBMC lysates and plasma 2-AG concentrations were measured by liquid chromatography tandem mass spectrometry (LC-MS/MS).
The nature of data set [5]: Phase 1 single- and multiple-dose study: plasma pharmacokinetics. The class given is in vivo. To be noted: human, po, fasted; for AUC(0-inf): read-out: AUCinf (mean); for half-life: read-out: T1/2 (median) (converted).
Text: as §1
There is a minimum 72-hour period between administration of study drug in Panels A and B. In addition, there is a minimum 2-week washout between Panel B Period 2 and Panel A Period 3 in order to evaluate available preliminary pharmacokinetic data along with safety and tolerability data from the preceding doses before proceeding with dosing in Periods 3 and 4. All doses are administered orally, together with approximately 240 mL of water. Water is otherwise restricted from 1 hour prior to, and for 1 hour after administration of study drug. In each treatment period, with the exception of Panel A Period 4 (food effect treatment period); study drug is administered after an overnight fast (for approximately 8 hours).
The allocation schedule for Periods 2 and 4 (fasted versus fed) are the same such that the same subjects receive active drug or matching placebo in the respective treatment periods.
PK: Descriptive statistics are provided by treatment (Part 1) and by treatment and day (Part 2). Minimum, median, maximum and CV are provided for all PK parameters. Arithmetic mean and standard deviation based on the raw scale are provided for AUC and Cmax. In addition, the percent CV of AUC and Cmax is also provided and calculated according to the following formula: 100×sqrt(exp(s2)−1), where s2 is the observed variance on the natural log-scale. Harmonic mean and jack-knife SD is provided for half-life. Time to steady-state, and evaluation of PK linearity are evaluated in an exploratory fashion.

The nature of data set [6]: in vivo. To be noted: rat, po, 0.5 mg/kg.
Data set [7] has as its system formalin-challenged rats. The experiment in a line: Rat formalin paw test.
Data set [8] has as its system 2-AG. Put plainly: Mouse brain 2-AG concentrations after PO dose. To be noted: single-dose PO.
[9] abbreviates: Panel C (10 mg QD×14 days) or Panel D (20 mg QD×14 days).
Where [10] appears, read: 100 mg, single oral dose 100 mg, Panel A, Period 3 (A3).
[11] abbreviates: 100 mg, single oral dose 100 mg, Panel B, Period 4 (B4).
Setting [12] is: 200 mg, single oral dose 200 mg.

As usually defined, the IC50 is the concentration needed to halve the response being measured. The Cmax is the highest concentration seen after dosing. A word on the Tmax: it is the time at which the peak concentration occurs.

Where a name gives a salt, the structure may show the parent alone. Read-outs that look alike come from different tables or passages of the source. A value given as a limit tells only on which side of the number the result lay.

MGLL, sequence (A0A8I3PC77 1-304): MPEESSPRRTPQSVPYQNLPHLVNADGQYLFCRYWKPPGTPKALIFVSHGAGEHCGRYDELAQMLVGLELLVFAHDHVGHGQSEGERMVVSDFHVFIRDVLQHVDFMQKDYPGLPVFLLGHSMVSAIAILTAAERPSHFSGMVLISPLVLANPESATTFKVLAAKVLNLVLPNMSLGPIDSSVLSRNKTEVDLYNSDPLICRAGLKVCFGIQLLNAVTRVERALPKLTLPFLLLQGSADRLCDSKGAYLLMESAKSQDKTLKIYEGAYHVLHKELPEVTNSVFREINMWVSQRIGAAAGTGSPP

As for `O=C(OC(C(F)(F)F)C(F)(F)F)N1CCN(Cc2ccc(C(F)(F)F)cc2N2CCCC2)CC1` [Compound 1 HCl, 1,1,1,3,3,3-hexafluoropropan-2-yl 4-(2-(pyrrolidin-1-yl)-4-(trifluoromethyl)benzyl)piperazine-1-carboxylate], in data set [1] (setting [9]), the “adverse events leading to discontinuation” value was “no adverse events leading to the discontinuation of any subjects” and the “changes in vital signs, laboratory test values, or ECGs” value is listed as “no clinically significant changes”. The “vital sign, safety laboratory, or electrocardiographic findings” value in data set [1] (healthy male subjects, fasting state, single oral doses up to 200 mg) is “not associated with any vital sign, safety laboratory, or electrocardiographic findings of note”.
As to `O=C(OC(C(F)(F)F)C(F)(F)F)N1CCN(Cc2ccc(C(F)(F)F)cc2N2CCCC2)CC1` [Compound 1, 1,1,1,3,3,3-hexafluoropropan-2-yl 4-(2-(pyrrolidin-1-yl)-4-(trifluoromethyl)benzyl)piperazine-1-carboxylate], the IC50 is 12 ± 2 nM in data set [2] (MGLL IC50, Dog Prefrontal Cortex, 30 min pre-incubation at 37° C., mean ± SEM, n = 3) and less than 30 nM in data set [2] (MGLL IC50, dog MGLL, summary statement for all species). Further, the “elevation in brain 2-AG concentrations at the Phase 2 ED50” value in data set [3] (rat formalin model, 0.5 mg/kg PO) is “approximately 3 fold”. For the same compound, in data set [3] (rat, single oral doses), the “brain levels of the endocannabinoid anandamide” value is “not elevated”. Also, in data set [3] (rat, single oral doses), the “increase of 2-AG concentration in plasma” value was determined as 7 fold. Besides, the ED50 in data set [3] (rat, single oral doses up to 30 mg/kg, 4 hours, read-out: ED50 for increase of brain 2-AG concentrations (average)) came to 1.3 mg/kg. The “increase of plasma 2-AG levels” value in data set [4] is reported as “up to 7 fold”. Further, the highest concentration (Cmax) in data set [5] (2 mg, single oral dose 2 mg) stood at 2.9 ng/mL; in data set [5] (6 mg, single oral dose 6 mg), 10.2 ng/mL; in data set [5] (18 mg, single oral dose 18 mg), 23.5 ng/mL; in data set [5] (50 mg, single oral dose 50 mg) it was 59.8 ng/mL; in data set [5] (setting [10]), 45.7 ng/mL; in data set [5] (setting [11]) it was 76 ng/mL. Also, the Cmax in data set [5] (setting [12]) was found to be 109 ng/mL. Further, the Tmax in data set [5] (2 mg, single oral dose 2 mg) came out at 1.5 h; in data set [5] (6 mg, single oral dose 6 mg) it was 1.67 h; in data set [5] (18 mg, single oral dose 18 mg), 2 h; in data set [5] (50 mg, single oral dose 50 mg) it was 1.8 h; in data set [5] (setting [10]), 3.17 h; in data set [5] (setting [11]), 1.83 h. In addition, the Tmax in data set [5] (setting [12]) stood at 3 h. Besides, the AUC(0-inf) in data set [5] (2 mg, single oral dose 2 mg) came to 15.9 ng·h/mL; in data set [5] (6 mg, single oral dose 6 mg), 47 ng·h/mL; in data set [5] (18 mg, single oral dose 18 mg) it was 109 ng·h/mL; in data set [5] (50 mg, single oral dose 50 mg) it was 296 ng·h/mL; in data set [5] (setting [10]), 289 ng·h/mL; in data set [5] (setting [11]), 512 ng·h/mL. Also, the AUC(0-inf) in data set [5] (setting [12]) was 766 ng·h/mL. Also, the half-life is 1.51 h in data set [5] (2 mg, single oral dose 2 mg); 2.23 h in data set [5] (6 mg, single oral dose 6 mg); 3.02 h in data set [5] (18 mg, single oral dose 18 mg); 3.44 h in data set [5] (50 mg, single oral dose 50 mg); 5.82 h in data set [5] (setting [10]); 3.76 h in data set [5] (setting [11]). For the same compound, the half-life in data set [5] (setting [12]) was 3.61 h. Also, the concentration at 4 h in data set [6] (blood) is 7 nM; in data set [6] (brain) it was 5 nM. Also, in data set [7] (1 mg/kg, single vs 5 days QD, n=10, repeat dose group not statistically different from vehicle), the “effect of single and repeated administration on pain behaviors” value was “numerically reduced pain behaviors to a similar extent”. For the same compound, in data set [7] (rat formalin nocifensive model), the “ED50 for exposure associated with efficacy” value turned out to be 0.4 µM·h. The “overt behavioral or locomotor perturbations” value in data set [7] (rats, at the ED50 dose and at oral doses 20-fold higher) is on record as “not apparent”. Also, the “Phase 2 ED50, paw licking behavior” value in data set [7] (single dose PO, 4 hours pre-test, n=10) was 0.5 mg/kg. Besides, the “effect on nociception in formalin-challenged rats” value in data set [7] (single dose up to 10 mg/kg PO, 4 hours pre-test, early (Phase 1) and delayed (Phase 2) phases) is listed as “dose-dependent antinociceptive effects”. The “increase of brain 2-AG concentrations” value in data set [8] was “up to 30 fold”.

The values are drawn from patent publication US11034674B2, “Methods of treating inflammation or neuropathic pain” (H. Lundbeck A/S, priority 2015, dated 2021).
